Laboratory results published in patent EP0082498A2, “Beta-lactam compounds and process for the preparation thereof” (SAGAMI CHEMICAL RESEARCH CENTER, priority 1981, dated 1983).
Values after ≈ are worked out from the molar mass of the structure shown. Counter-ions that a name gives are not always drawn. Like-named read-outs stand apart in the source and are kept apart here.

What was measured:
Assay in all cases: Antibacterial activity, minimum inhibition concentration (MIC)
Assay type in all cases: cell-based
[1] = tested on: Escherichia coli NIHJ-JC-2
Description: (§1) Antibacterial activities of the compounds according to this invention, which had been prepared in the preceding Examples, were measured according to the method prescribed by The Committee of Amendment of "The method for measurement of the minimum inhibition concentration", The Chemotherapy Association, Japan (See Chemotherapy, Vol. 29, No. 1, pp. 76 ~ 79 (1981)).
(§2) The test results are shown in terms of the minimum inhibition concentration (MIC) (unit: µg/mℓ) in the following Tables 1 to 4.

[2] = tested on: Klebsiella pneumoniae PCI-602; details: PCI602, Table 3
Description: as §1, §2

[3] = tested on: Proteus mirabillis IFO 3849; details: Table 3
Description: as §1, §2

[4] = tested on: Salmonella typhimurium IID-971; details: Salmonella enterica, Salmonella typhimurium IID-971, read-out: minimum inhibition concentration (MIC)
Description: as §1, §2

[5] = tested on: Staphylococcus aureus FDA 209 PJC-1
Description: as §1, §2

[6] = tested on: Proteus morganii IFO 3848; details: for MIC: Morganella morganii
Description: as §1, §2

[7] = tested on: Salmonella typhimrium 901
Description: as §1, §2

[8] = tested on: Staphylococcus aureus MS 353; details: for MIC: Staphylococcus aureus
Description: as §1, §2

[9] = tested on: Pseudomonas aeruginosa NCTC 10490; details: NCTC10490, Table 2
Description: as §1, §2

[10] = IFO3848, Table 4, Proteus morganii IFO 3848, read-out: minimum inhibition concentration (MIC)
[11] = Table 4, Salmonella typhimrium 901, read-out: minimum inhibition concentration (MIC)
[12] = MS353, Table 4, Staphylococcus aureus MS 353, read-out: minimum inhibition concentration (MIC)
[13] = IFO3848, Table 2, Proteus morganii IFO-3848, read-out: minimum inhibition concentration (MIC)
[14] = IFO3848, Table 1, Proteus morganii IFO 3848, read-out: minimum inhibition concentration (MIC)
[15] = MS353, Table 1, Staphylococcus aureus MS 353, read-out: minimum inhibition concentration (MIC)

## Cn1nnnc1SCC1=C(C(=O)O)N2C(=O)C(NC(=O)C(=CCl)c3csc(N)n3)C2SC1 (single isomer, unassigned) [Example 27, sodium 7-[2-chloromethylene-2-(2-aminothiazol-4-yl)acetamido]-3-(1-methyl-1H-tetrazol-5-yl)thiomethyl-3-cephem-4-carboxylate]
[1]; NIHJJC2, Table 3
  MIC: 0.2 µg/mL
[2]
  MIC: < 0.00625 µg/mL
[3]
  MIC: 0.2 µg/mL
[4]; Table 3
  MIC: 0.78 µg/mL
[5]; FDA209, Table 3
  MIC: 0.78 µg/mL

## Cn1ncc(=O)nc1SCC1=C(C(=O)O)N2C(=O)C(NC(=O)C(=CCl)c3csc(N)n3)C2SC1 (single isomer, unassigned) [Example 36, sodium 7-[2-chloromethylene-2-(2-aminothiazol-4-yl)acetamido]-3-(2-dihydro-2-methyl-5-oxo-as-triazine-3-yl)thiomethyl-3-cephem-4-carboxylate]
[6]; [10]
  MIC: ≤ 0.00625 µg/mL
[7]; [11]
  MIC: 0.39 µg/mL
[8]; [12]
  MIC: 0.39 µg/mL

## Nc1nc(C(=CCl)C(=O)NC2C(=O)N3C(C(=O)O)=C(CSc4nnnn4CCO)CSC23)cs1 (single isomer, unassigned) [Example 31]
[6]; [10]
  MIC: ≤ 0.00625 µg/mL
[7]; [11]
  MIC: 0.39 µg/mL (≈ 0.716 µM)
[8]; [12]
  MIC: 0.78 µg/mL (≈ 1.43 µM)

## NC(=O)Cn1nnnc1SCC1=C(C(=O)O)N2C(=O)C(NC(=O)C(=CCl)c3csc(N)n3)C2SC1 (single isomer, unassigned) [Example 29, sodium 7-[2-chloromethylene-2-(2-aminothiazol-4-yl)acetamido]-3-(1-carbamoylmethyl-1,2,3,4-tetrazol-5-yl)thiomethyl-3-cephem-4-carboxylate]
[7]; [11]
  MIC: 0.1 µg/mL
[8]; [12]
  MIC: 0.78 µg/mL

## Nc1nc(C(=CI)C(=O)NC2C(=O)N3C(C(=O)O)=C(CSc4nncs4)CS[C@H]23)cs1 (single isomer, unassigned) [Example 37, 7-[2-Iodomethylene-2-(2-aminothiazol-4-yl)acetamido]-3-(1,3,4-thiadiazol-2-yl)thiomethyl-3-cephem-4-carboxylic acid]
[6]; [10]
  MIC: ≤ 0.00313 µg/mL
[7]; [11]
  MIC: 0.39 µg/mL (≈ 0.641 µM)
[8]; [12]
  MIC: 0.2 µg/mL (≈ 0.329 µM)

## CCSc1nnc(SCC2=C(C(=O)O)N3C(=O)C(NC(=O)C(=CCl)c4csc(N)n4)C3SC2)s1 (single isomer, unassigned) [Example 22, 7-[2-Chloromethylene-2-(2-aminothiazol-4-yl)acetamido]-3-(2-ethylthio-l,3,4-thiadiazol-5-yl)thiomethyl-3-cephem-4-carboxylic acid hydrochloride]
[1]; NIHJJC2, Table 2
  MIC: 0.2 µg/mL
[6]; [13]
  MIC: ≤ 0.0063 µg/mL
[9]
  MIC: 1.56 µg/mL
[5]; FDA209, Table 2
  MIC: 0.2 µg/mL

## CC1(C)S[C@@H]2C(NC(=O)C(=CCl)c3csc(N)n3)C(=O)N2[C@H]1C(=O)[O-].[Na+] (single isomer, unassigned) [Example 38, Sodium 6-[2-chloromethylene-2-(2-aminothiazol-4-yl)acetamido]penicillanate]
[6]; IFO3848, read-out: minimum inhibition concentration (MIC)
  MIC: 0.05 µg/mL
[7]; Salmonella, 901, read-out: minimum inhibition concentration (MIC)
  MIC: 3.12 µg/mL
[8]; MS353, read-out: minimum inhibition concentration (MIC)
  MIC: 0.2 µg/mL

## CC(=O)OCC1=C(C(=O)O)N2C(=O)C(NC(=O)C(=CCl)c3csc(N)n3)C2SC1 (single isomer, unassigned) [Example 28, sodium 7-[2-chloromethylene-2-(2-aminothiazol-4-yl)-acetamido]-3-acetoxymethyl-3-cephem-4-carboxylate]
[1]; NIHJJC2, Table 3
  MIC: 0.1 µg/mL
[2]
  MIC: 0.05 µg/mL
[3]
  MIC: 0.2 µg/mL
[4]; Table 3
  MIC: 12.5 µg/mL
[5]; FDA209, Table 3
  MIC: 12.5 µg/mL

## Nc1nc(C(=CCl)C(=O)NC2C(=O)N3C(C(=O)O)=C(CSc4cnn[nH]4)CSC23)cs1 (single isomer, unassigned) [Example 34, sodium7-[2-chloramethylene-2-(2-aminothiazol-4-yl)acetamido]-3-(l,2,3-triazol-5-yl)thiomethyl-3-cephem-4-carboxylate]
[6]; [10]
  MIC: 0.0125 µg/mL
[7]; [11]
  MIC: 0.78 µg/mL
[8]; [12]
  MIC: 0.78 µg/mL

## Nc1nc(C(=CBr)C(=O)NC2C(=O)N3C(C(=O)O)=C(CSc4nncs4)CS[C@H]23)cs1 (some centres unmarked) [Example 25, 7-[2-Bromomethylene-2-(2-aminothiazol-4-yl)acetamido]-3-(1,3,4-thiadiazol-2-yl)thiomethyl-3-cephem-4-carboxylic acid]
[1]; NIHJJC2, Table 2
  MIC: 0.1 µg/mL (≈ 0.178 µM)
[6]; [13]
  MIC: ≤ 0.0063 µg/mL
[9]
  MIC: 0.2 µg/mL (≈ 0.356 µM)
[5]; FDA209, Table 2
  MIC: 0.2 µg/mL (≈ 0.356 µM)

## sodium 7-[2-chloromethylene-2-(2-aminothiazol-4-yl)-acetamido]-3-(2-hydroxycarbonylmethylthio-1,3,4-thiadia- zol-5-yl)thiomethyl-3-cephem-4-carboxylate [Example 35]
[6]; Table 4, Proteus morganii IFO 3848
  minimum inhibition concentration (MIC): ≤6.25 ng/mL
[7]; Table 4, Salmonella typhimrium 901
  minimum inhibition concentration (MIC): 0.78 µg/mL
[8]; Table 4, Staphylococcus aureus MS 353
  minimum inhibition concentration (MIC): 0.78 µg/mL

## COC(=O)Cn1nnnc1SCC1=C(C(=O)O)N2C(=O)C(NC(=O)C(=CCl)c3csc(N)n3)C2SC1 (single isomer, unassigned) [Example 30, disodium 7-[2-chloromethylene-2-(2-aminothiazol-4-yl)acetamido]-3-(l-methoxycarbonylmethyl-1,2,3,4-tetrazol-5-yl)thiomethyl-3-cephem-4-carboxylate]
[7]; [11]
  MIC: 0.2 µg/mL
[8]; [12]
  MIC: 0.78 µg/mL

## N#CCn1nnnc1SCC1=C(C(=O)O)N2C(=O)C(NC(=O)C(=CCl)c3csc(N)n3)C2SC1 (single isomer, unassigned) [Example 32, sodiun 7-[2-chloromethylene-2-(2-aminothiazol-4-yl)acetamido]-3-(l-cyanomethyl-l,2,3,4-tetrazol-5-yl)thiomethyl-3-cephem-4-carboxylate]
[6]; [10]
  MIC: 0.0125 µg/mL (≈ 0.0231 µM)
[7]; [11]
  MIC: 0.78 µg/mL (≈ 1.44 µM)
[8]; [12]
  MIC: 1.56 µg/mL (≈ 2.89 µM)

## Nc1nc(C(=CCl)C(=O)NC2C(=O)N3C(C(=O)O)=C(CSc4cnns4)CSC23)cs1 (single isomer, unassigned) [Example 33, sodium 7-[2-chloromethylene-2-(2-aminothiazol-4-yl)acetamido]-3-(1,2,3-thiadiazol-5-yl)thiomethyl-3-cephem-4-carboxylate]
[6]; [10]
  MIC: ≤ 0.00625 µg/mL
[7]; [11]
  MIC: 0.2 µg/mL
[8]; [12]
  MIC: 0.1 µg/mL

## Cc1nnc(SCC2=C(C(=O)O)N3C(=O)C(NC(=O)C(=CBr)c4csc(N)n4)C3SC2)s1 (centres unmarked) [Example 26, 7-[2-Bromomethylene-2-(2-aminothiazol-4-yl)acetamido]-3-(2-methyl-1,3,4-thiadiazol-5-yl)thiomethy1-3-cephem-4-carboxylic acid]
[1]; NIHJJC2, Table 2
  MIC: 0.1 µg/mL (≈ 0.174 µM)
[6]; [13]
  MIC: ≤ 0.0063 µg/mL
[9]
  MIC: 0.39 µg/mL (≈ 0.678 µM)
[5]; FDA209, Table 2
  MIC: 0.39 µg/mL (≈ 0.678 µM)

## Cn1nnnc1SCC1=C(C(=O)O)N2C(=O)C(NC(=O)C(=CBr)c3csc(N)n3)C2SC1 (stereo not drawn) [Example 21, 7-[2-Bromomethylene-2-(2-aminothiazol-4-yl)acetamido]-3-(l-methyl-lH-tetrazol-5-yl)thiomethyl-3-cephem-4-carboxylic acid]
[6]; [14]
  MIC: 0.0125 µg/mL (≈ 0.0223 µM)
[4]; Table 1
  MIC: ≤ 0.006 µg/mL
[8]; [15]
  MIC: 0.2 µg/mL (≈ 0.357 µM)

## Cn1nnnc1SCC1=C(C(=O)O)N2C(=O)C(NC(=O)C(=CCl)c3cnc(N)s3)C2SC1 (stereo not drawn) [Example 7, sodium 7-[2-chloromethylene-2-(2-aminothiazol-5-yl)acetamido]-3-(l-methyl-lH-tetrazol-5-yl)thiomethyl-3-cephem-4-carboxylate]
[6]; [14]
  MIC: 1.56 µg/mL
[4]; Table 1
  MIC: 1.56 µg/mL
[8]; [15]
  MIC: 0.39 µg/mL

## Cn1nnnc1SCC1=C(C(=O)O)N2C(=O)C(NC(=O)C(=CC#N)c3csc(N)n3)C2SC1 (single isomer, unassigned) [Example 16, 7-[2-Cyanomethylene-2-(2-aminothiazol-4-yl)acetamido]-3-(l-methyl-lH-tetrazol-5-yl)thiomethyl-3-cephem-4-carboxylic acid]
[6]; [14]
  MIC: ≤ 0.006 µg/mL
[4]; Table 1
  MIC: ≤ 0.006 µg/mL
[8]; [15]
  MIC: 0.78 µg/mL (≈ 1.54 µM)

## Cn1nc(O)c(=O)nc1SCC1=C(C(=O)O)N2C(=O)C(NC(=O)C(=CCl)c3csc(N)n3)C2SC1 (single isomer, unassigned) [Example 4, disodium 7-[2-chloromethylene-2-(2-aminothiazol-4-yl)acetamido]-3-(2,5-dihydro-6-hydroxy-2-methyl-5-oxo-as-triazin-3-yl)thiomethyl-3-cephem-4-carboxylate]
[6]; [14]
  MIC: ≤ 0.006 µg/mL
[4]; Table 1
  MIC: ≤ 0.006 µg/mL
[8]; [15]
  MIC: 0.78 µg/mL
